From ChEMBL document CHEMBL1201862, “PubChem BioAssay data set” (2004) come the findings set out here.

Some test systems named below: CCRF-CEM; COLO 205; DMS-273; HCT-15; HL-60; IGROV-1; KM-20L2; KM12; LOX IMVI; LXFL 529; M14; OVCAR-3; OVCAR-4; OVCAR-5; RXF 393; SK-MEL-28; SNB-19; SR; SW-620; UACC-62.
Holding throughout (assay): NCI-60 cell line screen, 48 h

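In this assay, cells in 96-well plates receive the compound at five concentrations for 48 hours. Endpoints are linearly interpolated between the surrounding concentrations. The concentration for 50% growth inhibition is given as GI50.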 Activity calls are given as the source filed them. No stated cut-off is given here; in the data, active = GI50 up to about 1.1 µM and inactive = higher.

With `Nc1cc(-c2ccccc2)nn1-c1nsc2ccccc12`, the GI50 in the experiment on CCRF-CEM is 21.6 µM (inactive); in the experiment on COLO 205, > 100 µM (inactive); in the experiment with DMS-273 it was 80.7 µM (inactive); with HCT-15, 95.3 µM; in the experiment with HL-60 it was 61.8 µM (inactive); in the experiment with IGROV-1, 83.9 µM (inactive). Also, the GI50 was > 100 µM (inactive) in the experiment on KM-20L2; > 100 µM (inactive) in the experiment with KM12; 97.5 µM (inactive) in the experiment on LOX IMVI; > 100 µM (inactive) in the experiment on LXFL 529; > 100 µM (inactive) in the experiment on M14; 94.2 µM (inactive) with OVCAR-3. Further, the GI50 is > 100 µM (inactive) in the experiment with OVCAR-4; > 100 µM (inactive) with OVCAR-5; 14.4 µM (inactive) with RXF 393; 98.4 µM (inactive) with SK-MEL-28; > 100 µM (inactive) in the experiment with SNB-19; 53.2 µM (inactive) in the experiment on SR. The GI50 in the experiment on SW-620 and in the experiment on UACC-62 was > 100 µM (inactive) throughout.

For `CNC(=O)CN1CC(=O)N(C)C(=O)C1`, the GI50 with CCRF-CEM is > 100 µM (inactive); with COLO 205, > 100 µM (inactive); in the experiment on DMS-273, > 100 µM (inactive); with HCT-15, greater than 100 µM; in the experiment on HL-60 it was > 100 µM (inactive); in the experiment with IGROV-1, > 100 µM (inactive). In addition, the GI50 with KM-20L2, in the experiment with KM12, in the experiment with LOX IMVI, with LXFL 529, in the experiment with M14 and in the experiment on OVCAR-3 was > 100 µM (inactive) throughout. For the same compound, the GI50 in the experiment with OVCAR-4, in the experiment with OVCAR-5, in the experiment on RXF 393, with SK-MEL-28, in the experiment on SNB-19 and with SR was > 100 µM (inactive) throughout. In addition, the GI50 in the experiment with SW-620 and with UACC-62 was > 100 µM (inactive) in each case.

`CC1(C)Cc2c(C#N)c(N)c3c(c2CO1)C(=O)OC3=O`: the GI50 was > 100 µM (inactive) with CCRF-CEM; > 100 µM (inactive) with COLO 205; > 100 µM (inactive) with DMS-273; greater than 100 µM in the experiment with HCT-15; > 100 µM (inactive) in the experiment on HL-60; > 100 µM (inactive) in the experiment with IGROV-1. Further, the GI50 in the experiment on KM-20L2, in the experiment with KM12, with LOX IMVI, with LXFL 529, with M14 and in the experiment on OVCAR-3 was > 100 µM (inactive) in each case. The GI50 with OVCAR-4, in the experiment with OVCAR-5, with RXF 393, in the experiment with SK-MEL-28, with SNB-19 and with SR was > 100 µM (inactive) in each case. The GI50 with SW-620 and in the experiment with UACC-62 was > 100 µM (inactive) in each case.
